From patent US9120760B2, “Fluoro-homoneplanocin A and nucleoside derivatives, method for the synthesis thereof, and the pharmaceutical compositions comprising the same as an active component for treatment of cancer” (EWHA UNIVERSITY—INDUSTRY COLLABORATION FOUNDATION, priority 2012, dated 2015)

Experiments:
Type in all cases: cell-based
[1] = test system: HCT-116 (colorectal cancer); experiment: SRB cell growth inhibition assay, HCT-116; conditions: Homo sapiens, 96 hours, read-out: concentration of the drug to inhibit the cell growth by 50%
Excerpt: (§1) Measurement of the Growth Inhibition Ability Against Cancer Cells
(§2) Human cancer cell strains were obtained through the following paths: OVCAR-3 (ovarian cancer), MCF-7 (hormone dependent breast cancer), MDA-MB-231 (breast cancer), HeLa (cervical cancer), PC3 (prostate cancer), LNCap (prostate cancer), HepG2 (liver cancer), A549 (lung cancer), NCI-H226 (lung cancer), Caki-1 (kidney cancer), SK-MEL-28 (melanoma cancer), HT-29 (colorectal cancer), HCT116 (colorectal cancer) and PANC-1 (pancreas cancer) cells were purchased from American Type Culture Collection (ATCC) (Manassas, Va.); U251(brain tumor) cells were purchased from Riken Institutes, Marunouchi, Tokyo, Japan; MKN-45 (gastric cancer) cells were purchased from DSMZ (Germany); and UMRC2 (kidney cancer) cells were purchased from U.S. National Cancer Institute (Bethesda, Md.).
(§3) MDA-MB-231, HCT116, UMRC2, Caki-1 and PANC-1 cells were cultured in Dulbecco's modified Eagle's medium (“DMEM”, Invitrogen) including 10% FBS, 100 units/mL penicillin-streptomycin (P/S), 10 mM HEPES and 2 mM L-glutamine. All the other cell strains were cultured in RPMI1640 medium (Invitrogen, Carlsbad, Calif.) including 10% fetal bovine serum (FBS), 1 mM sodium pyruvate, 10 mM HEPES, and 100 units/mL penicillin-streptomycin (P/S). All cells were cultured at 37° C. 5% CO2 humid conditions.
(§4) The cell growth inhibition level of the novel compound synthesized using (1S,2R,5S)-5-(6-Aminopurine-9-yl)-4-fluoro-3-hydroxyethyl-cyclopent-3(4)-en-1,2-diol (compound of Formula 1 where X is NH2 and R2 is H) prepared in the above Example 3, (1S,2R,5S)-4-Fluoro-3-hydroxyethyl-5-(uracil-1-yl)-cyclopent-3(4)-en-1,2-diol (Compound 10) prepared in the above Example 4, (1S,2R,5S)-5-(Cytosine-1-yl)-4-fluoro-3-hydroxyethyl-cyclopent-3(4)-en-1,2-diol (Compound 11) prepared in the above Example 5, Fluoro-neplanocin A, and Homoneplanocin A was analyzed by SRB (sulphorhodamine B) assay according to the publicly known method in the literature.
(§5) Human cancer cell strains increased exponentially were divided into the 96-well plates at the density of 2×10^3 to 3×10^3 cells/well and processed with the compounds of the various concentrations in the present invention on the next day. 0.25% DMSO was used as a control group. Three experiments were performed for each process. The cells were fixed with 10% trichloro-acetic acid at 96 hours after processing with the compound and SRB analysis was carried out. Optical density was measured at 530 nm with Benchmark PlusMicroplate Reader (Bio-Rad Laboratories, Hercules, Calif.). The concentration of the drug to inhibit the cell growth by 50% […] was measured with Kaledia Graph (Synergy software, Reading, Pa.).

PC-3 (prostate cancer) = experiment: SRB cell growth inhibition assay, PC-3; conditions: Homo sapiens, 96 hours, read-out: concentration of the drug to inhibit the cell growth by 50%
Excerpt: as §1, §2, §3, §4, §5

T47D (breast cancer) = experiment: SRB cell growth inhibition assay, T47D; conditions: Homo sapiens, 96 hours, read-out: concentration of the drug to inhibit the cell growth by 50%
Excerpt: [Worded in the source for another cell line; this cell line is reported under the same test.] as §1, §2, §3, §4, §5

SNU638 (gastric cancer) = experiment: SRB cell growth inhibition assay, SNU638; conditions: Homo sapiens, SNU-638, 96 hours, read-out: concentration of the drug to inhibit the cell growth by 50%
Excerpt: [Worded in the source for another cell line; this cell line is reported under the same test.] as §1, §2, §3, §4, §5

A549 (lung cancer) = experiment: SRB cell growth inhibition assay, A549; conditions: Homo sapiens, 96 hours, read-out: concentration of the drug to inhibit the cell growth by 50%
Excerpt: as §1, §2, §3, §4, §5

K562 (blood cancer) = experiment: SRB cell growth inhibition assay, K562; conditions: Homo sapiens, 96 hours, read-out: concentration of the drug to inhibit the cell growth by 50%
Excerpt: [Worded in the source for another cell line; this cell line is reported under the same test.] as §1, §2, §3, §4, §5

Structure (SMILES) | IC50 [1] | IC50 (PC-3 (prostate cancer)) | IC50 (T47D (breast cancer)) | IC50 (SNU638 (gastric cancer)) | IC50 (A549 (lung cancer)) | IC50 (K562 (blood cancer))
O=c1ccn([C@@H]2C(F)=C(CCO)[C@@H](O)[C@H]2O)c(=O)[nH]1 [Compound 10, (1S,2R,5S)-4-Fluoro-3-hydroxyethyl-5-(uracil-1-yl)-cyclopent-3(4)-en-1,2-diol] | > 10000 nM | > 10 µM | > 10 µM | > 10000 nM | > 10000 nM | > 10000 nM
Nc1ccn([C@@H]2C(F)=C(CCO)[C@@H](O)[C@H]2O)c(=O)n1 [Compound 11, (1S,2R,5S)-5-(Cytosine-1-yl)-4-fluoro-3-hydroxyethyl-cyclopent-3(4)-en-1,2-diol] | > 10000 nM | > 10 µM | > 10 µM | > 10000 nM | > 10000 nM | > 10000 nM
Nc1ncnc2c1ncn2[C@@H]1C(F)=C(CCO)[C@@H](O)[C@H]1O [Compound of Formula 1, (1S,2R,5S)-5-(6-Aminopurine-9-yl)-4-fluoro-3-hydroxyethyl-cyclopent-3(4)-en-1,2-diol] | 1100 nM | 2.39 µM | 2.83 µM | 370 nM | 620 nM | 130 nM
Nc1ncnc2c1ncn2C1C(F)=C(CO)C(O)C1O (stereo not drawn) [Fluoro-neplanocin A, reference compound] | 1400 nM | 3.1 µM | 3.6 µM | 1300 nM | 2600 nM | 2200 nM
Nc1ncnc2c1ncn2C1C=C(CCO)C(O)C1O (stereo not drawn) [Homoneplanocin A] | > 10000 nM | > 10 µM | > 10 µM | > 10000 nM | > 10000 nM | > 10000 nM
